In PubChem BioAssay AID2060624 (Molecular Pharmacology Branch, DTP, NCI, 2025):

Tested on: 217524-143-R1-J4-PDC spheroids with HUVEC/MSC, viability
Assay: Anticancer human tumor 217524-143-R1-J4-PDC patient-derived pancreatic carcinoma cell line growth inhibition [CLK]
Details: for IC50: curve of first compound; for viability, T/C: stronger effect = lower value
In short: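 Patient-derived tumor cells grown as complex spheroids with HUVEC endothelial cells and mesenchymal stem cells, treated with drug combinations. Concentrations descend in half-log steps from near clinical Cmax, or from 10 microM if Cmax unknown.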

[1] = second compound 0.0316 µM, first compound 0.0316 µM
[2] = second compound 0.0316 µM, first compound 0.1 µM
[3] = second compound 0.1 µM, first compound 0.0316 µM
[4] = second compound 0.1 µM, first compound 0.1 µM
[5] = second compound 0.316 µM, first compound 0.0316 µM
[6] = second compound 0.316 µM, first compound 0.1 µM
[7] = second compound 1 µM, first compound 0.0316 µM
[8] = second compound 1 µM, first compound 0.1 µM
[9] = second compound 3.16 µM, first compound 0.0316 µM
[10] = second compound 3.16 µM, first compound 0.1 µM
[11] = second compound 10 µM, first compound 0.0316 µM
[12] = second compound 10 µM, first compound 0.1 µM
[13] = second compound 0.0316 µM, first compound 0.316 µM
[14] = second compound 0.0316 µM, first compound 1 µM
[15] = second compound 0.0316 µM, first compound 3.16 µM
[16] = second compound 0.0316 µM, first compound 10 µM
[17] = second compound 0.1 µM, first compound 0.316 µM
[18] = second compound 0.1 µM, first compound 1 µM
[19] = second compound 0.1 µM, first compound 3.16 µM
[20] = second compound 0.1 µM, first compound 10 µM
[21] = second compound 0.316 µM, first compound 0.316 µM
[22] = second compound 0.316 µM, first compound 1 µM
[23] = second compound 0.316 µM, first compound 3.16 µM
[24] = second compound 0.316 µM, first compound 10 µM
[25] = second compound 1 µM, first compound 0.316 µM
[26] = second compound 1 µM, first compound 1 µM
[27] = second compound 1 µM, first compound 3.16 µM
[28] = second compound 1 µM, first compound 10 µM
[29] = second compound 3.16 µM, first compound 0.316 µM
[30] = second compound 3.16 µM, first compound 1 µM
[31] = second compound 3.16 µM, first compound 3.16 µM
[32] = second compound 3.16 µM, first compound 10 µM
[33] = second compound 10 µM, first compound 0.316 µM
[34] = second compound 10 µM, first compound 1 µM
[35] = second compound 10 µM, first compound 3.16 µM
[36] = second compound 10 µM, first compound 10 µM
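Also: spheroids exposed to agents for seven days before reading.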
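For viability, T/C in this document: 100% = DMSO vehicle control viability.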

## Cn1ncnc1[C@H]1c2n[nH]c(=O)c3cc(F)cc(c23)N[C@@H]1c1ccc(F)cc1 + CNC(=O)c1ccc(Nc2nc(OC3CCCC3)c3c(-c4ccc5nc(C)oc5c4)c[nH]c3n2)c(OC)c1
Second compound 0.0316 µM
  IC50: > 100 nM
Second compound 0.1 µM
  IC50: < 0.316 nM
Second compound 0.316 µM
  IC50: < 0.316 nM
Second compound 1 µM
  IC50: < 0.316 nM
Second compound 3.16 µM
  IC50: < 0.316 nM
Second compound 10 µM
  IC50: < 0.316 nM
Second compound 0.0316 µM, first compound 0.000316 µM
  viability, T/C: 101%
Second compound 0.0316 µM, first compound 0.001 µM
  viability, T/C: 68.8%
Second compound 0.0316 µM, first compound 0.00316 µM
  viability, T/C: 86.1%
Second compound 0.0316 µM, first compound 0.01 µM
  viability, T/C: 85%
[1]
  viability, T/C: 83.4%
[2]
  viability, T/C: 75.5%
Second compound 0.1 µM, first compound 0.000316 µM
  viability, T/C: 43.6%
Second compound 0.1 µM, first compound 0.001 µM
  viability, T/C: 44.8%
Second compound 0.1 µM, first compound 0.00316 µM
  viability, T/C: 41.6%
Second compound 0.1 µM, first compound 0.01 µM
  viability, T/C: 37.5%
[3]
  viability, T/C: 38.6%
[4]
  viability, T/C: 31.4%
Second compound 0.316 µM, first compound 0.000316 µM
  viability, T/C: 34.5%
Second compound 0.316 µM, first compound 0.001 µM
  viability, T/C: 42.8%
Second compound 0.316 µM, first compound 0.00316 µM
  viability, T/C: 34.1%
Second compound 0.316 µM, first compound 0.01 µM
  viability, T/C: 39%
[5]
  viability, T/C: 39.9%
[6]
  viability, T/C: 37.3%
Second compound 1 µM, first compound 0.000316 µM
  viability, T/C: 23.3%
Second compound 1 µM, first compound 0.001 µM
  viability, T/C: 32.8%
Second compound 1 µM, first compound 0.00316 µM
  viability, T/C: 30.6%
Second compound 1 µM, first compound 0.01 µM
  viability, T/C: 23.3%
[7]
  viability, T/C: 21.3%
[8]
  viability, T/C: 25.8%
Second compound 3.16 µM, first compound 0.000316 µM
  viability, T/C: 28.6%
Second compound 3.16 µM, first compound 0.001 µM
  viability, T/C: 23.7%
Second compound 3.16 µM, first compound 0.00316 µM
  viability, T/C: 27.2%
Second compound 3.16 µM, first compound 0.01 µM
  viability, T/C: 23.2%
[9]
  viability, T/C: 24.4%
[10]
  viability, T/C: 23.6%
Second compound 10 µM, first compound 0.000316 µM
  viability, T/C: 29%
Second compound 10 µM, first compound 0.001 µM
  viability, T/C: 25.5%
Second compound 10 µM, first compound 0.00316 µM
  viability, T/C: 24.7%
Second compound 10 µM, first compound 0.01 µM
  viability, T/C: 24.6%
[11]
  viability, T/C: 24.3%
[12]
  viability, T/C: 21.2%

## Nc1ccn(C2OC(CO)C(O)C2(F)F)c(=O)n1 (stereo unspecified) + CNC(=O)c1ccc(Nc2nc(OC3CCCC3)c3c(-c4ccc5nc(C)oc5c4)c[nH]c3n2)c(OC)c1
Second compound 0.0316 µM
  IC50: 47 nM
Second compound 0.1 µM
  IC50: < 31.6 nM
Second compound 0.316 µM
  IC50: < 31.6 nM
Second compound 1 µM
  IC50: < 31.6 nM
Second compound 3.16 µM
  IC50: < 31.6 nM
Second compound 10 µM
  IC50: < 31.6 nM
[1]
  viability, T/C: 60.1%
[2]
  viability, T/C: 31%
[13]
  viability, T/C: 25.2%
[14]
  viability, T/C: 29.9%
[15]
  viability, T/C: 30.4%
[16]
  viability, T/C: 25.1%
[3]
  viability, T/C: 35.3%
[4]
  viability, T/C: 28.8%
[17]
  viability, T/C: 20.8%
[18]
  viability, T/C: 33.2%
[19]
  viability, T/C: 29%
[20]
  viability, T/C: 28.1%
[5]
  viability, T/C: 28.9%
[6]
  viability, T/C: 25.1%
[21]
  viability, T/C: 18.5%
[22]
  viability, T/C: 23.5%
[23]
  viability, T/C: 20.6%
[24]
  viability, T/C: 21.3%
[7]
  viability, T/C: 24.8%
[8]
  viability, T/C: 17.1%
[25]
  viability, T/C: 13.6%
[26]
  viability, T/C: 19.9%
[27]
  viability, T/C: 13.3%
[28]
  viability, T/C: 14.5%
[9]
  viability, T/C: 21.8%
[10]
  viability, T/C: 18.1%
[29]
  viability, T/C: 11.2%
[30]
  viability, T/C: 13.5%
[31]
  viability, T/C: 14.3%
[32]
  viability, T/C: 11.6%
[11]
  viability, T/C: 23.4%
[12]
  viability, T/C: 18.6%
[33]
  viability, T/C: 12.8%
[34]
  viability, T/C: 10.8%
[35]
  viability, T/C: 13.8%
[36]
  viability, T/C: 11.8%

## O=c1[nH]cc(F)c(=O)[nH]1 + CNC(=O)c1ccc(Nc2nc(OC3CCCC3)c3c(-c4ccc5nc(C)oc5c4)c[nH]c3n2)c(OC)c1
Second compound 0.0316 µM
  IC50: 768 nM
Second compound 0.1 µM
  IC50: < 31.6 nM
Second compound 0.316 µM
  IC50: < 31.6 nM
Second compound 1 µM
  IC50: < 31.6 nM
Second compound 3.16 µM
  IC50: < 31.6 nM
Second compound 10 µM
  IC50: < 31.6 nM
[1]
  viability, T/C: 79.9%
[2]
  viability, T/C: 86.3%
[13]
  viability, T/C: 61.6%
[14]
  viability, T/C: 48.3%
[15]
  viability, T/C: 30.7%
[16]
  viability, T/C: 29.1%
[3]
  viability, T/C: 40.4%
[4]
  viability, T/C: 37.5%
[17]
  viability, T/C: 39.4%
[18]
  viability, T/C: 35.6%
[19]
  viability, T/C: 30%
[20]
  viability, T/C: 26.7%
[5]
  viability, T/C: 32.3%
[6]
  viability, T/C: 36.7%
[21]
  viability, T/C: 31.5%
[22]
  viability, T/C: 29.9%
[23]
  viability, T/C: 29.1%
[24]
  viability, T/C: 21.5%
[7]
  viability, T/C: 29.6%
[8]
  viability, T/C: 26.7%
[25]
  viability, T/C: 24.8%
[26]
  viability, T/C: 21.9%
[27]
  viability, T/C: 20.2%
[28]
  viability, T/C: 13.9%
[9]
  viability, T/C: 27%
[10]
  viability, T/C: 30.4%
[29]
  viability, T/C: 21.7%
[30]
  viability, T/C: 23.4%
[31]
  viability, T/C: 18.5%
[32]
  viability, T/C: 13.4%
[11]
  viability, T/C: 23.2%
[12]
  viability, T/C: 27.4%
[33]
  viability, T/C: 22.4%
[34]
  viability, T/C: 22.6%
[35]
  viability, T/C: 17.9%
[36]
  viability, T/C: 13.1%
